Test results as given in patent publication US20240285594A1, “COMPOSITIONS AND METHODS FOR TREATING PAIN IN ANIMALS” (North Carolina State University, priority 2023, published 2024).
Entries after “also recorded” stand apart in the source; their conditions may differ. Read-outs that look alike come from different tables or passages of the source.

Tests used:
[1] = cited from earlier work
[2] = IM flunixin in pigs; cited from earlier work
[3] = Pilot pharmacokinetic study of intranasal flunixin, three catheter sites; assay type: in vivo; details: female, Yorkshire cross, plasma, inhaled or intranasal, 3.0 mg/kg IN, one grower pig; for AUC / Cmax: pig, 3 mg/kg; for AUC: read-out: area under the curve (AUC) (converted); for Cmax: read-out: peak concentration (Cmax)
Excerpt: A pilot study in one animal was initially performed to compare jugular venous drug concentrations to those of other sites (femoral artery and auricular artery), as there was concern that drainage of the nasal sinus would produce higher concentrations of flunixin in the blood collected from the jugular vein.
The pilot study involved one female Yorkshire cross grower pig sourced from a production farm weighing 25.3 kg. The pig was sedated with IM Telazol®, ketamine, and xylazine (TKX). The Telazol® was reconstituted with ketamine (250 mg; 2.5 mL) and xylazine (250 mg; 2.5 mL; Dechra Veterinary Products, Overland Park, KS, USA) and administered IM at a dose of 0.03 mL/kg (1.5 mg/kg) for each medication before being intubated and maintained on isoflurane anesthesia. A femoral arterial catheter, jugular venous catheter, and auricular arterial catheter were placed using sterile technique. […] A higher dose than the label dose was chosen to ensure that the drug would be detectable since this study's purpose was to determine an appropriate catheter site. Using an intranasal mucosal atomization device (MAD) (Teleflex, Morrisville, NC, USA) with 1 mL luer lock syringe, each nostril was infused with 0.75 mL (37.5 mg) of flunixin to administer a total of 1.5 mL (75 mg). Plasma samples were collected from each catheter site at pre-treatment (blank), 0.08, 0.25, 0.5, 0.85, 1, 1.5, 2, 2.5, and 3 hours post-treatment and analyzed using ultra performance liquid chromatography and tandem mass spectrometry (UPLC-MS/MS) to determine flunixin concentrations. A non-compartmental pharmacokinetic analysis was then performed.

[4] = tested on: prostaglandin E2 (PGE2); experiment: Serum PGE2 after castration of piglets (Example 3); assay type: in vivo
Experimental: Pairwise comparisons of treatments at −24 h: P≥0.77. […] Pairwise comparisons of treatments at 24 h post-castration: P≥0.11.
The objective of this study was to evaluate the effects of intranasal flunixin and intra-inguinal lidocaine application on the castration associated inflammatory response in piglets, as described in Example 1.

[5] = UPAPS behavioral pain scoring and rescue analgesia after castration (Part II); assay type: in vivo, piglets; details: -1 h, 0 h and +3 h relative to castration; compared to C (saline); listed as FM
Experimental: Behavior scoring was obtained in real-time by observing each piglet for 4-min continuously using Unesp-Botucatu pig acute pain scale (UPAPS). Each piglet was scored by one trained observer at the following timepoints: 1 h before castration (−1 h), immediately post-castration (0 h), and 3 h post-castration (+3 h, FIG. 3). The 4-min sampling time was obtained from the methodology previously validated. Treatments were masked, randomized, and applied to each piglet by a senior researcher. The Unesp-Botucatu UPAPS scale evaluates five behavioral items, with each item divided into four descriptive levels. A numerical score was designated from “0” to “3”, with a “0” representing normal behavior (free of pain) and “3” corresponding to pronounced behavioral deviation (severe pain). Therefore, for each timepoint, piglets may receive a score ranging from 0 (min) to 15 (max; Table 3). Total pain scores were then calculated for each piglet per timepoint. […] This is most referred to rescue analgesia in the literature; and was conducted for each behavioral assessment. Total counts were calculated for piglets identified as requiring or not requiring rescue analgesia by treatment and timepoint. […]

[6] = IV administration 2.2 mg/kg, piglets, Kittrell et al. (2020)
[7] = PO administration 3.3 mg/kg, piglets, Kittrell et al. (2020)
[8] = TD administration 3.3 mg/kg, piglets, Kittrell et al. (2020)

Cc1c(Nc2ncccc2C(=O)O)cccc1C(F)(F)F [flunixin meglumine]
half-life [1, 6]: 7.06 h
maximum observed drug concentration [1, 6]: 12.03 µg/mL
Cmax [1, 7]: 4.99 µg/mL
Tmax [1, 7]: 0.93 h
half-life [1, 7]: 11.38 h
Cmax [1, 8]: 0.04 µg/mL
Tmax [1, 8]: 22.50 h
half-life [1, 8]: 38.89 h
bioavailability ([1]; transdermal formulation, pigs): low bioavailability
blood concentrations ([1]; transdermal formulation, swine, Kittrell et al. (2020)): low blood concentrations
label withdrawal time [2]: 12 days
AUC ([3]; auricular artery): 12800 ng·h/mL
Cmax ([3]; auricular artery): 6000 ng/mL
AUC ([3]; femoral artery): 12300 ng·h/mL
Cmax ([3]; femoral artery): 5170 ng/mL
AUC ([3]; jugular vein): 12800 ng·h/mL
Cmax ([3]; jugular vein): 6820 ng/mL
Tmax ([3]; all catheter sites, read-out: time to peak concentration (Tmax)): 15 min
serum PGE2 concentrations ([4]; 1 h post-castration, castrated and non-castrated piglets, flunixin 2.2 mg/kg IN vs piglets without the drug): lower serum PGE2 concentrations; also recorded: effective
serum PGE2 concentrations ([4]; 24 h post castration, vs other treatments): no observed differences; also recorded: not effective
total UPAPS scores [5]: did not decrease; also recorded: behavioral differences were not noted
